The text below walks through data of PubChem BioAssay AID330 (DTP/NCI, 2004).

This experiment relates to P388 leukemia ip, CD2F1 mice, survival T/C. The experiment in a line: NCI In Vivo Anticancer Drug Screen. Data for tumor model P388 Leukemia (intraperitoneal) in CD2F1 (CDF1) mice. As to conditions: endpoint: median survival time, higher = longer survival. A digest of the protocol: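 Mice carrying the transplanted tumor received test compound or vehicle. Survival was recorded in each group, and the value is the treated-group measurement divided by that of the vehicle-treated control group.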

The mark [1] stands for this setting: dose: 60.0 mg/kg/injection, schedule: Q01DX005 (ip), vehicle: saline.
[2] abbreviates: dose: 120.0 mg/kg/injection, schedule: Q01DX005 (ip), vehicle: saline.
The mark [3] stands for this setting: dose: 240.0 mg/kg/injection, schedule: Q01DX005 (ip), vehicle: saline.
The mark [4] stands for this setting: dose: 50.0 mg/kg/injection, schedule: Q01DX009 (ip), vehicle: saline with Tween-80.
Where [5] appears, read: dose: 100.0 mg/kg/injection, schedule: Q01DX009 (ip), vehicle: saline with Tween-80.
Where [6] appears, read: dose: 200.0 mg/kg/injection, schedule: Q01DX009 (ip), vehicle: saline with Tween-80.
Setting [7] is: dose: 100.0 mg/kg/injection, schedule: Q01DX009 (ip), vehicle: saline.
Where [8] appears, read: dose: 200.0 mg/kg/injection, schedule: Q01DX009 (ip), vehicle: saline.
Where [9] appears, read: dose: 400.0 mg/kg/injection, schedule: Q01DX009 (ip), vehicle: saline.
[10] abbreviates: dose: 100.0 mg/kg/injection, schedule: Q01DX001 (ip), vehicle: Klucel (hydroxypropylcellulose) (HPC).
The mark [11] stands for this setting: dose: 200.0 mg/kg/injection, schedule: Q01DX001 (ip), vehicle: Klucel (hydroxypropylcellulose) (HPC).
Where [12] appears, read: dose: 400.0 mg/kg/injection, schedule: Q01DX001 (ip), vehicle: Klucel (hydroxypropylcellulose) (HPC).
The mark [13] stands for this setting: dose: 50.0 mg/kg/injection, schedule: Q01DX005 (ip), vehicle: Klucel (hydroxypropylcellulose) (HPC).
Setting [14] is: dose: 100.0 mg/kg/injection, schedule: Q01DX005 (ip), vehicle: Klucel (hydroxypropylcellulose) (HPC).
[15] abbreviates: dose: 200.0 mg/kg/injection, schedule: Q01DX005 (ip), vehicle: Klucel (hydroxypropylcellulose) (HPC).
Where [16] appears, read: dose: 50.0 mg/kg/injection, schedule: Q01DX005 (ip), vehicle: saline with Tween-80.
Setting [17] is: dose: 100.0 mg/kg/injection, schedule: Q01DX005 (ip), vehicle: saline with Tween-80.
Where [18] appears, read: dose: 200.0 mg/kg/injection, schedule: Q01DX005 (ip), vehicle: saline with Tween-80.

The structures appear in SMILES notation. “And” between values parts separate entries of the source, which are not always exact repeats. Equal entries are not always repeated. Toxic doses and inconclusive results are not listed.

Turning to `C=C1CCCC2(C)C(OC(C)=O)C=C3C(C)(CCC3(O)C(C)C)CC12O` (configuration not stated), the T/C was 110 % of control (dose: 0.5 mg/kg/injection, schedule: Q01DX009 (ip), vehicle: saline + alcohol); 108 % of control (dose: 1.0 mg/kg/injection, schedule: Q01DX009 (ip), vehicle: saline + alcohol); 102 % of control (dose: 2.0 mg/kg/injection, schedule: Q01DX009 (ip), vehicle: saline + alcohol).
In the case of `NNC(=O)Cc1cc(=O)[nH][nH]1`, the T/C (dose: 100.0 mg/kg/injection, schedule: Q01DX009 (ip), vehicle: Klucel (hydroxypropylcellulose) (HPC)) is 101 % of control; the T/C (dose: 200.0 mg/kg/injection, schedule: Q01DX009 (ip), vehicle: Klucel (hydroxypropylcellulose) (HPC)) was 100 % of control; the T/C (dose: 400.0 mg/kg/injection, schedule: Q01DX009 (ip), vehicle: Klucel (hydroxypropylcellulose) (HPC)) is 108 % of control.
With `COC(=O)/C(C)=C\n1ccccc1=O`, the T/C under setting [1] was 97 % of control, the T/C under setting [2] is 99 % of control and the T/C under setting [3] was 98 % of control.
Regarding `CC(=O)OCC1(C)NC(=O)c2ccccc2O1` (configuration not stated), the T/C by setting is: under setting [4], 109 % of control (2×) and 120 % of control; under setting [5], 114 % of control and 118 % of control; under setting [6], 100 % of control.
Turning to `C#CCOc1ccccc1O`, the T/C is, setting by setting: under setting [7], 100 % of control; under setting [8], 110 % of control; under setting [9], 115 % of control.
`C1CCC2(CC1)OCCCO2`: the T/C under setting [10] is 94 % of control, the T/C under setting [11] is 99 % of control and the T/C under setting [12] was 107 % of control.
In the case of `Oc1cc2c(ccc3ccccc32)c2c1CCC2`, the T/C was 106 % of control (dose: 6.25 mg/kg/injection, schedule: Q01DX001 (ip), vehicle: Klucel (hydroxypropylcellulose) (HPC)); 104 % of control (dose: 12.5 mg/kg/injection, schedule: Q01DX001 (ip), vehicle: Klucel (hydroxypropylcellulose) (HPC)); 119 % of control (dose: 25.0 mg/kg/injection, schedule: Q01DX001 (ip), vehicle: Klucel (hydroxypropylcellulose) (HPC)).
Regarding `Clc1ccc2c(c1)C(c1ccccc1)=NCc1nncn1-2`, the T/C is, setting by setting: (dose: 25.0 mg/kg/injection, schedule: Q01DX009 (ip), vehicle: Klucel (hydroxypropylcellulose) (HPC)) 103 % of control; (dose: 50.0 mg/kg/injection, schedule: Q01DX009 (ip), vehicle: Klucel (hydroxypropylcellulose) (HPC)) 95 % of control.
In the case of `Cc1ccc(C2(O)CC3CCC(C2)N3C)cc1` (configuration not stated), the T/C runs as follows: under setting [10], 103 % of control; under setting [11], 110 % of control; under setting [12], 101 % of control.
As for `N#Cc1c(-c2cccn(-c3ccccc3)c2=O)cc(-c2ccccc2)[nH]c1=O`, the T/C under setting [13] was 88 % of control, the T/C under setting [14] is 89 % of control and the T/C under setting [15] was 110 % of control.
For the compound `O=[N+]([O-])c1cccc2c1nnn2OC1CCCC1`, the T/C is, setting by setting: (dose: 100.0 mg/kg/injection, schedule: Q01DX001 (ip), vehicle: saline with Tween-80) 102 % of control; (dose: 200.0 mg/kg/injection, schedule: Q01DX001 (ip), vehicle: saline with Tween-80) 98 % of control.
As to `CCOCCNc1ncnc2c1cnn2C`, the T/C is 91 % of control (dose: 12.5 mg/kg/injection, schedule: Q04DX003 (ip), vehicle: saline); 88 % of control (dose: 25.0 mg/kg/injection, schedule: Q04DX003 (ip), vehicle: saline); 93 % of control (dose: 50.0 mg/kg/injection, schedule: Q04DX003 (ip), vehicle: saline); 95 % of control (dose: 100.0 mg/kg/injection, schedule: Q04DX003 (ip), vehicle: saline).
As for `CC1(C)N=C(N)N=C(N)N1c1ccc(F)cc1`, the T/C was 110 % of control (dose: 12.5 mg/kg/injection, schedule: Q01DX005 (ip), vehicle: Klucel (hydroxypropylcellulose) (HPC)) and 113 % of control (dose: 25.0 mg/kg/injection, schedule: Q01DX005 (ip), vehicle: Klucel (hydroxypropylcellulose) (HPC)).
For the compound `O=C(O)C1C2OC3C(OC(=O)C31)C2Br` (configuration not stated), the T/C was 100 % of control under setting [16], 94 % of control under setting [17] and 103 % of control under setting [18].
Regarding `COc1cc2c(cc1OC)C(Cc1ccccc1[N+](=O)[O-])=NCC2`, the T/C (dose: 25.0 mg/kg/injection, schedule: Q04DX003 (ip), vehicle: saline with Tween-80) is 99 % of control; the T/C (dose: 50.0 mg/kg/injection, schedule: Q04DX003 (ip), vehicle: saline with Tween-80) is 100 % of control; the T/C (dose: 100.0 mg/kg/injection, schedule: Q04DX003 (ip), vehicle: saline with Tween-80) is 114 % of control; the T/C (dose: 200.0 mg/kg/injection, schedule: Q04DX003 (ip), vehicle: saline with Tween-80) was 100 % of control.
For `Nc1nc(N)c2nc(NCc3ccc(C(=O)NC(CCC(=O)O)C(=O)O)cc3)cnc2n1` (configuration not stated), the T/C by setting is: (dose: 50.0 mg/kg/injection, schedule: Q01DX009 (ip), vehicle: saline) 100 % of control; under setting [7], 109 % of control; under setting [8], 113 % of control; under setting [9], 95 % of control.
For `FC(F)(F)c1cc(-n2c(-c3ccccc3)nc(=S)c3c2CCCC3)cc(C(F)(F)F)c1`, the T/C was 100 % of control under setting [4], 95 % of control under setting [5] and 94 % of control under setting [6].
In the case of `CC(=O)NC(C=O)OCC=O` (configuration not stated), the T/C runs as follows: (dose: 44.0 mg/kg/injection, schedule: Q01DX005 (ip), vehicle: water) 120 % of control; (dose: 66.0 mg/kg/injection, schedule: Q01DX005 (ip), vehicle: water) 121 % of control; (dose: 150.0 mg/kg/injection, schedule: Q01DX005 (ip), vehicle: water) 110 % of control.
As to `COc1ccc2nc3cc(Cl)ccc3c(Nc3ccc(S(=O)(=O)Nc4nccs4)cc3)c2c1`, the T/C reads like this: under setting [16], 94 % of control; under setting [17], 105 % of control; under setting [18], 97 % of control.
As for `CCOP(O)(=S)OCC.[Gd]`, the T/C was 90 % of control (dose: 100.0 mg/kg/injection, schedule: Q04DX003 (ip), vehicle: Klucel (hydroxypropylcellulose) (HPC)); 90 % of control (dose: 200.0 mg/kg/injection, schedule: Q04DX003 (ip), vehicle: Klucel (hydroxypropylcellulose) (HPC)); 90 % of control (dose: 400.0 mg/kg/injection, schedule: Q04DX003 (ip), vehicle: Klucel (hydroxypropylcellulose) (HPC)).
In the case of `CCN(CC)P(c1ccccc1)N(CC)CC`, the T/C (dose: 100.0 mg/kg/injection, schedule: Q01DX001 (ip), vehicle: saline) is 101 % of control; the T/C (dose: 200.0 mg/kg/injection, schedule: Q01DX001 (ip), vehicle: saline) was 111 % of control; the T/C (dose: 400.0 mg/kg/injection, schedule: Q01DX001 (ip), vehicle: saline) is 104 % of control.
`O=c1c(I)cn(CC(O)CO)c(=O)n1CC(O)CO` (configuration not stated): the T/C was 95 % of control under setting [13], 100 % of control under setting [14] and 86 % of control under setting [15].
On to `COc1ccc2c(c1)nc(/C(C(=O)C(=O)c1ccccc1)=C(\O)c1ccccc1)c(C)[n+]2[O-]`, for which the T/C reads like this: under setting [1], 103 % of control; under setting [2], 104 % of control; under setting [3], 100 % of control.
For `Cc1ccc(-c2nc3c(C)nc(-c4ccccc4)nc3n2Nc2ccccc2)cc1`, the T/C reads like this: under setting [16], 94 % of control; under setting [17], 90 % of control; under setting [18], 91 % of control.
As for `CC1NNC(=S)NN1`, the T/C runs as follows: (dose: 15.0 mg/kg/injection, schedule: Q01DX005 (ip), vehicle: saline with Tween-80) 101 % of control; (dose: 30.0 mg/kg/injection, schedule: Q01DX005 (ip), vehicle: saline with Tween-80) 101 % of control.
As for `c1ccc(Cc2nnc3n2CCC(c2ccccc2)S3)cc1` (configuration not stated), the T/C (dose: 60.0 mg/kg/injection, schedule: Q01DX005 (ip), vehicle: saline with Tween-80) was 102 % of control; the T/C (dose: 120.0 mg/kg/injection, schedule: Q01DX005 (ip), vehicle: saline with Tween-80) is 99 % of control; the T/C (dose: 240.0 mg/kg/injection, schedule: Q01DX005 (ip), vehicle: saline with Tween-80) is 95 % of control.
